From a melting point compilation (Tetko et al.; mined from patent text by program, amines drawn as free bases though some values may be those of a salt)

SMILES | melting point [°C]
CC(C)SC1=C(O)CC(C)(C)CC1=O | 74.5 to 79.5
CCOCCn1cc2c(C3C(=O)Nc4ccc(Cl)cc43)nc(NCc3cccnc3)nc2n1 (stereo not given) | 294 to 296
Cc1ccc(CSc2nc3cc4c(cc3[nH]2)OCO4)nc1 | 187 to 188
C#CCOc1ccc2ccc(=O)oc2c1 | 118
CC1=C(/C=C/C(C)=C/C=C/C(C)=C\C(=O)O)C(C)(C)C(O)C=C1 (stereo not given) | 108 to 110
CCOC(=O)C1(c2ccc(Cl)cc2)CCN(C(=O)CC(c2ccccc2)(c2ccccc2)c2ccccc2)CC1 | 95 to 98
COCCn1nc(C(N)=O)cc1CC(C)(C)C#N | 130 to 131
CN(C)c1ccc(-c2ccnc(Nc3ccc4c(c3)OCCO4)c2)cc1 | 154 to 156
CCCCCCCCCCCCCCCCOCC1=CCCO1 | 30.5 to 31.5
CC(SC1COC(C=CC=Cc2ccc(C#N)cc2F)OC1)C(O)(Cn1cncn1)c1ccc(F)cc1F (stereo not given) | 111 to 112
NC(=S)C(CN1CCOCC1)c1ccccn1 (stereo not given) | 102 to 104
CCC(O)C(=O)Nc1c(C)c(C)c2c(c1C)C(c1ccc(C(C)C)cc1)CO2 (stereo not given) | 146 to 147
Cc1cc(C)c2c(n1)N(CCN(C(C)C)C(C)C)C(=O)N(C)C2 | 97 to 99
CC1(C)CCC(C)(C)c2cc3c(cc21)CCc1cc(-c2ccc(C(=O)O)cc2)oc1-3 | 264 to 265
CC1=C(c2cccc(C(F)(F)F)c2)n2ncc(C(N)=O)c2NC1 | 200 to 202
COc1cc2c(cc1OC)CC(NC(=O)C1CCC(=O)N1)CC2 (stereo not given) | 195 to 196
OC(CSc1ncccn1)CN1CCN(C(c2ccc(F)cc2)c2ccc(F)cc2)CC1 (stereo not given) | 75 to 76
CN(C)Cc1nc(C=Cc2nc3ccc(F)cc3c(=O)n2-c2ccccc2F)cs1 | 163 to 165
CNCc1cn(-c2ccccc2)nc1OCc1ccc(OCc2nc(-c3ccco3)oc2C)c(OC)c1 | 103 to 104
Oc1cc(Br)cc(I)c1 | 83 to 84
Cc1cc(-c2nncc3c(C(C)(C)C)c(OCc4ncn(C)n4)nn23)no1 | 161 to 164
Cc1cc2c(cc1[N+](=O)[O-])C(=O)CC(C)O2 (stereo not given) | 110 to 113
N#Cc1c(-c2ccccc2)cc(N2CCOCC2)nc1Cl | 198 to 200

SMILES | melting point [°C]
CCCc1c(OCC(O)COc2ccc3c(=O)cc(CCC(=O)O)oc3c2CCC)ccc(C(C)=O)c1O (stereo not given) | 79 to 80
CCCCCCCCc1ccc(N=Nc2ccc(OC(=O)CCOCCCCCCC)cc2)cc1 | 42.1
CCCCCCCCCCOc1c(Br)sc(-c2nc3ccccc3s2)c1OCCCCCCCCCC | 42 to 43
Cc1cc(Br)cnc1CCCCNC1=NS(=O)(=O)c2ccc(Cl)cc21 | 231 to 235
CN1CCN(C)CCN2CCOCCOCCN(CC1)CCN(C)CCN(C)CC2 | 32 to 33
Nc1cccc(Oc2cccc3cccnc23)c1 | 98 to 100
NC1=Nc2ccc([N+](=O)[O-])cc2C(c2ccccc2F)=NC1 | 225 to 227
CC1(C)Oc2cc(CCc3ccccc3)cc(O)c2C2=CC(=O)CCC21 (stereo not given) | 233 to 235
CN1Cc2c(C#CI)ncn2-c2cccc(Cl)c2C1=O | 215 to 216
O=C(Cn1ccnc1)c1ccc(Cl)c(Cl)c1 | 126 to 128
CCCN(CCC)C(=O)Cc1ccc(OCC(=O)c2ccc(OC)cc2)c([N+](=O)[O-])c1 | 95 to 97
CC(C)(C)OC(=O)COc1ccc(NC(=O)NC(=O)c2ccc(C(N)=S)cc2)cc1 | 248
CC(=O)c1ccc(-c2ccc(C(N)=NO)o2)cc1 | 197 to 199
CCCCOC(=O)c1cc(OC)c(Cc2cnc(N)nc2N)c(OC)c1 | 186 to 188
CCN(CC)c1cccc(COc2ccc(N)nn2)c1 | 115 to 118
O=C1NC(=O)C(=Cc2ccc3c(c2)c2ccccc2n3Cc2ccc(-c3ccccc3)cc2)S1 | > 250
C(OCC1CO1)C1CO1 (stereo not given) | 90 to 93
Cn1c(SSc2c(C(=O)Nc3ccccc3)c3cc(O)ccc3n2C)c(C(=O)Nc2ccccc2)c2cc(O)ccc21 | 185 to 187
O=C(NO)c1ccc2c(c1)CCN(C(=O)C1CC1)C2 | 90
O=C(NCCCCCCCCCCCNC(=O)c1ccc(OC(F)(F)F)cc1)c1ccc(OC(F)(F)F)cc1 | 142
COc1cc(CO)ccc1OCc1csc(N2CCOCC2)n1 | 94 to 95
COc1ccc2cc(C(C)C(=O)OC/C=C\COC(=O)OC(C)O[N+](=O)[O-])ccc2c1 (stereo not given) | 76 to 78
Cc1c(-c2cc(N(C)C)ncn2)ssc1=S | 137

SMILES | melting point [°C]
CCc1cccc2c1N(CC(=O)N1CC3CCC(CC3)C1)C(=O)C(NC(=O)Nc1cccc(C)c1)N=C2c1ccccc1F (stereo not given) | 163 to 168
COc1cc(C)c(C(=O)c2c(OC)cnc(Cl)c2Cl)c(OC)c1OC | 98 to 99
CC(=O)NCCCCCC(=O)NC[C@@H]1CN2C(=O)C[C@H]2O1 (racemic) | 117 to 118
CN1CCC(NC(c2cccc(C#CCCCCN)c2)c2nc3ccccc3[nH]2)CC1 (stereo not given) | 79
CC(=O)OC1CC2C3CCC4=CC(=O)CCC4(C)C3CCC2(C)C1N(C)C(=O)C(F)(F)F (stereo not given) | 173 to 174
Clc1ccc(/C=C/c2ccc(Cl)cc2)cc1 | 176
CCn1c(=O)cc(C)c2cc(C(O)(C(F)(F)F)C(F)(F)F)ccc21 | 91 to 92
Cc1cc(C)c2c(C)coc2c1Cc1ccc(C(C)C)cc1 | 106 to 107
CCOC(=O)C(=NOCc1ccc(OCc2nc(-c3ccccc3)oc2C)cc1)c1ccc(Br)cc1 | 105 to 106
CS(=O)(=O)NC(=O)CCc1ccc(OC2CCc3cc(Cl)ccc32)cc1 (stereo not given) | 140 to 141
COC(=O)CC(=O)c1ccc(C#N)cc1 | 93 to 98
Oc1ccc(-c2cc3cc(O)ccc3o2)c(-c2ccccc2)c1 | 167 to 170
C=CC(=O)Nc1ccc2ncnc(Nc3cccc(C)c3)c2c1 | 247 to 248
Cc1cn(COCCO)c(=O)[nH]c1=O | 138 to 140
O=C(c1ccccc1SSc1ccccc1C(=O)N1CCC(O)C1)N1CCC(O)C1 (stereo not given) | 168 to 172
COC1CCc2c(cc(-c3ccccc3)n2-c2ccc(O)cc2)C1 (stereo not given) | 174 to 175
CN(C(=O)CN(C(=O)CNC(=O)Nc1cccc(/C=N/O)c1)c1ccccc1)c1ccccc1 | 219
CN(C)CCCNC(=O)[C@@H]1CCCN1S(=O)(=O)c1ccc(Cl)c(COc2cccc3c2NC(C)(C)C=C3n2cncn2)c1Cl | 154
Cc1cccc(-c2nc(CCOc3ccc(C=CC=C4OC(=O)NC4=O)cc3)c(C)o2)c1 | 213 to 214
CS(=O)(=O)c1ccc(-c2cnn(-c3ccc(C(=O)n4cccc4)cc3)c(=O)c2-c2ccc(F)cc2)cc1 | 229 to 231
O=C(CN1CCC(Cc2ccccc2)CC1)Nc1ccc2c(c1)OCC(=O)N2 | 184 to 188

The remaining lines, values ahead:

melting point [°C] | SMILES
150 to 151 | COc1ccc2c(c1)c(C1CCN(CCOc3ccccc3C(=O)O)CC1)cn2Cc1cccs1
149 to 151 | Cc1sc2ncc(C(O)C=Cc3ccccc3)n2c1C (stereo not given)
192 to 194 | COc1c(N)nc(-c2ccc(Cl)c(F)c2F)nc1C(=O)NO
229 | O=C(O)c1cc(Cl)c(Cl)c(-c2ccc(Cl)cc2)n1
141 to 143 | COc1cccc(C(=O)N2CCc3cc(OCc4ccccc4)c(OC)cc3C2=O)c1
168 to 170 | CCC(=CC(CNC(=O)c1cnc2ccccc2c1)=NO)C(C)[N+](=O)[O-] (stereo not given)
184 to 185 | COc1ccc(CC(CS)C(=O)Nc2cccc(C(=O)O)c2)cc1 (stereo not given)
312 to 315 | Cc1cc2c(=O)n3cc(C(=O)O)ccc3nc2s1
129 | COC(=O)c1cc2cc(OC(F)(F)F)ccc2[nH]1
179 | CC(=O)c1ccc2c(c1)Sc1cc(C(C)=O)ccc1O2
151 to 152 | COC(=O)c1nc(OC(C)=O)cc2c1[nH]c1ccccc12
206 to 208 | CC(C)C[C@H](NC(=O)Nc1n[nH]c(=S)s1)C(=O)NCc1ccccc1
98 to 100 | COc1ccc(CSC2=NC(c3cccc(Cl)c3Cl)C(C(=O)OC(C)C)=C(C)N2)cc1 (stereo not given)
222 | Cn1c(-c2nnc(Cc3ccc(F)cc3)o2)c(O)c(=O)c2ccccc21
120 to 122 | COc1ccc(OC)c2c1CCC(OC(C)=O)(C(C)=O)C2 (stereo not given)
242 to 244 | O=C(O)/C=C/c1c[nH]c2ccccc2c1=O
88 to 91 | CC(=O)c1c(CCN2CCN(C)CC2)nc(-c2ccccc2)nc1-c1cccc([N+](=O)[O-])c1

melting point [°C] | SMILES
> 250 | CC(=O)NCC1CN(c2ccc3c(c2)OCC2CN(C(=O)c4cc5ccccc5[nH]4)CCN32)C(=O)O1 (stereo not given)
> 300 | Cc1cc(=O)[nH]nc1-c1ccc2c(c1)C(C)CC(=O)N2 (stereo not given)
213 to 214 | CSc1ccnc(-c2nc(=O)c3ccccc3s2)c1
271 to 274 | CCc1ccc2[nH]c(=O)[nH]c(=O)c2c1
206 to 207 | COC(=O)c1ccc(-c2nc(-c3ccc(Br)cc3)cs2)cc1
71.5 | CCOC(=O)c1ccc(/C=C(\C)c2ccc(OC)c(C(C)(C)C)c2)cc1
162 | COc1cc2c(cc1OC)CN(CCCSc1ccc(NC(=O)c3cccc4c(=O)c5cccc(F)c5[nH]c34)cc1)CC2
203 | CCCC1=C(C#N)C(c2ccccc2OC)c2c[nH]nc2N1 (stereo not given)
253 | COc1ccc(-c2ccc(C(=O)O)cc2)cc1F
127 to 131 | COc1ccc(NS(=O)(=O)c2cccc3ccccc23)cc1OCCc1ccc2ccccc2c1
81 to 82 | COc1cccc(NC(C)=O)c1
226 to 227 | CCCOc1ccccc1-c1nc2c(C(N)=O)cccc2c(=O)[nH]1
215 to 216 | CCOC(=O)c1cn2c(cc(Cl)c3ccc(OC)cc32)n1
191 to 193 | COc1ccc(C(=O)Nc2ccccc2)cc1NS(=O)(=O)c1ccc(Cl)c(Cl)c1
194 to 198 | COC(=O)c1ccc(C=C2Cc3ccccc3C2=O)cc1
300 | CCOC(=O)c1c[nH]c2cc(Cl)ncc2c1=O
